Results: ChEMBL document CHEMBL1148765, “Design, synthesis, and estrogenic activity of a novel estrogen receptor modulator--a hybrid structure of 17beta-estradiol and vitamin E in hippocampal neurons” (J Med Chem, 2007)

What was measured:
Homo sapiens = species: Homo sapiens; assay: Selectivity for ERbeta over ERalpha
Hippocampal neurone = assay: Increase in Akt phosphorylation in rat hippocampal neurons at 100 nM after 30 mins by Western immunoblotting relative to control; assay type: tissue-based; settings: Hippocampus
[1] = Effect on glutamate-induced loss of metabolic viability in rat hippocampal neurons assessed as increase in neuronal viability at 100 nM after 48 hrs relative to glutamate; assay type: functional, Hippocampus, Hippocampal neurone
[2] = Increase in ERK2 phosphorylation in rat hippocampal neurons at 100 nM after 30 mins by Western immunoblotting relative to control; assay type: functional, Hippocampus, Hippocampal neurone
Estrogen receptor = molecular target: T1, Estrogen receptor (Homo sapiens, UniProt P03372)
T1 sequence (P03372 whole entry): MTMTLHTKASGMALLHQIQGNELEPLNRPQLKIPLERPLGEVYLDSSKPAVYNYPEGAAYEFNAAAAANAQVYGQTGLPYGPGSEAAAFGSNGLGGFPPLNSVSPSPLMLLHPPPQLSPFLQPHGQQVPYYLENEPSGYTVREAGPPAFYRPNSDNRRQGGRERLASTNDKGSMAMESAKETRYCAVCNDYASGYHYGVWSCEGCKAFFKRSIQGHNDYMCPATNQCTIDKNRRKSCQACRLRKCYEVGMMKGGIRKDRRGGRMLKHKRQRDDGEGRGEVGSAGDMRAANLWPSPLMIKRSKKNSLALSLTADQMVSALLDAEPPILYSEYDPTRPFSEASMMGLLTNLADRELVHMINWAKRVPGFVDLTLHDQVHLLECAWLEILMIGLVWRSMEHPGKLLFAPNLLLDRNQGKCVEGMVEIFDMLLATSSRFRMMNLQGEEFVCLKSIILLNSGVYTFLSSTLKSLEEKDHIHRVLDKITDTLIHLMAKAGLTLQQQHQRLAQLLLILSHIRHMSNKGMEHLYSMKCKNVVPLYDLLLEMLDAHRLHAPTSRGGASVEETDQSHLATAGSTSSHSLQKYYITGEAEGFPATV
Description: Binding affinity to human ERalpha

[3] = Effect on glutamate-induced loss of metabolic viability in rat hippocampal neurons assessed as increase in neuronal viability at 1000 nM after 48 hrs relative to glutamate; assay type: functional, Hippocampus, Hippocampal neurone
[4] = Effect on glutamate-induced neurotoxicity in rat hippocampal neurons assessed increase in neuronal membrane integrity at 10 nM after 48 hrs relative to glutamate; assay type: functional, Hippocampus, Hippocampal neurone
[5] = Increase in Bcl-XL expression in rat hippocampal neurons at 10 nM after 48 hrs by Western immunoblotting relative to control; assay type: functional, Hippocampus, Hippocampal neurone
[6] = Effect on glutamate-induced neurotoxicity in rat hippocampal neurons assessed increase in neuronal membrane integrity at 1000 nM after 48 hrs relative to glutamate; assay type: functional, Hippocampus, Hippocampal neurone
[7] = Effect on glutamate-induced loss of metabolic viability in rat hippocampal neurons assessed as increase in neuronal viability at 1 nM after 48 hrs relative to glutamate; assay type: functional, Hippocampus, Hippocampal neurone
Estrogen receptor beta = Estrogen receptor beta (Homo sapiens, UniProt Q92731)
Sequence of Estrogen receptor beta (Q92731 whole entry): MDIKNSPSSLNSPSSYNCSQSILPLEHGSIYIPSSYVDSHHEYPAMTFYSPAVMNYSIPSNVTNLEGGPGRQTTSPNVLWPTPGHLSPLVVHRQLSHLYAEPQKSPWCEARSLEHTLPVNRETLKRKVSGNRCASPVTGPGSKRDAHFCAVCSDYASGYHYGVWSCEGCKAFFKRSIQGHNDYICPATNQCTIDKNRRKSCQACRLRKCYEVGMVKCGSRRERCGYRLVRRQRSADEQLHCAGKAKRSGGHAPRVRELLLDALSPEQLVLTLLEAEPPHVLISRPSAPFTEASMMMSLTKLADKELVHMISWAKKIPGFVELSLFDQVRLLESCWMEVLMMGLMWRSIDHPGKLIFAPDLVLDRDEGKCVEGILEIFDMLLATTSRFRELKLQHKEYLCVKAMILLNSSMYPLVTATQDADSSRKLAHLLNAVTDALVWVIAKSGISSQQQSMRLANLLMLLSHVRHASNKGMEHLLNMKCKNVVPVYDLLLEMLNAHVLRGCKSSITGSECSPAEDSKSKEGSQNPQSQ
Description: Binding affinity to human ERbeta

[8] = Increase in Bcl2 expression in rat hippocampal neurons at 10 nM after 48 hrs by Western immunoblotting relative to control; assay type: functional, Hippocampus, Hippocampal neurone
[9] = Effect on glutamate-induced loss of metabolic viability in rat hippocampal neurons assessed as increase in neuronal viability at 10 nM after 48 hrs relative to glutamate; assay type: functional, Hippocampus, Hippocampal neurone
[10] = Increase in spinophilin expression in rat hippocampal neurons at 10 nM after 48 hrs by Western immunoblotting relative to control; assay type: functional, Hippocampus, Hippocampal neurone
[11] = Effect on glutamate-induced neurotoxicity in rat hippocampal neurons assessed increase in neuronal membrane integrity at 1 nM after 48 hrs relative to glutamate; assay type: functional, Hippocampus, Hippocampal neurone
[12] = Effect on glutamate-induced neurotoxicity in rat hippocampal neurons assessed increase in neuronal membrane integrity at 100 nM after 48 hrs relative to glutamate; assay type: functional, Hippocampus, Hippocampal neurone

Compound `Oc1ccc(/C=C/c2cc(O)cc(O)c2)cc1` has a Selectivity ratio (Homo sapiens) of 48.

Work on `CC(C)CCC[C@@H](C)CCC[C@@H](C)CCC[C@@H]1Cc2cc(O)ccc2[C@H]2CC[C@]3(C)[C@@H](O)CC[C@H]3[C@H]12` yielded an Activity (Hippocampal neurone) of 139%, an Activity [1] of 28.4% and an Activity [2] of 46.3%. It also gave an IC50 (Estrogen receptor) of 193 nM, an Activity [3] of 25.6% and an Activity [4] of 44.1%. It also gave an Activity [5] of 58%, an Activity [6] of 59.1% and an Activity [7] of 2.7%. For the same compound, the IC50 (Estrogen receptor beta) was 267 nM, the Activity [8] was 23.4% and the Activity [9] was 9.3%. The Activity [10] was 61.7%, the Activity [11] was 38.6% and the Activity [12] was 67%.
